Patent US10035760B2, “Inhibitors of human immunodeficiency virus replication” (priority 2013, dated 2018)
Like-named read-outs stand apart in the source and are kept apart here.

Tested on: recombinant NL4-3 virus (Renilla luciferase) in MT-2 cells
Experiment: HIV cell culture assay (antiviral activity, luciferase readout in infected MT-2 cells)
Type: cell-based
Method in brief: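 EC50 derived via median-effect equation from luciferase activity in MT-2 cells after 4–5 day infection, compound serially diluted. Virus: recombinant NL4-3 with Renilla luciferase replacing part of nef, made in 293T cells.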

[1] = Renilla, NL43, read-out: Activity, antiviral activity class, recombinant NL4-3 Renilla luciferase virus in MT-2 cells
[2] = Renilla, NL43, recombinant NL4-3 Renilla luciferase virus in MT-2 cells
[3] = recombinant NL4-3 Renilla luciferase virus in MT-2 cells, read-out: EC50

Question: How did the EC50 [1] turn out when `COc1cc(C)c(N(C)C(=O)[C@H](Cc2ccccc2)NC(=O)NS(=O)(=O)c2ccccc2C)cc1C` [Example JB-84, (S)—N-(4-methoxy-2,5-dimethylphenyl)-N-methyl-3-phenyl-2-(3-(o-tolylsulfonyl)ureido)propanamide] was run?
Answer: Its EC50 is 100 to 1000 nM.

Question: Which EC50 [1] does the source give for `COc1ccc(N(C)C(=O)[C@H](Cc2ccccc2)NC(=O)NS(=O)(=O)c2c(C)n(C)c3ccccc23)cc1` [Example JB-85, (S)-2-(3-((1,2-dimethyl-1H-indol-3-yl)sulfonyl)ureido)-N-(4-methoxyphenyl)-N-methyl-3-phenylpropanamide] here?
Answer: Its EC50 is 100 to 1000 nM.

Question: For `COc1ccc(N(Cc2ccccc2)C(=O)[C@H](Cc2ccccc2)NC(=O)NS(=O)(=O)c2ccccc2C)cc1` [Example ZY-3, (S)—N-benzyl-N-(4-methoxyphenyl)-3-phenyl-2-(3-(o-tolylsulfonyl)ureido)propanamide], which EC50 [1] is on record?
Answer: Its EC50 is 1000 to 10000 nM.

Question: And the EC50 [2]?
Answer: The EC50 was 3610 nM.

Question: With `COc1ccc(N(Cc2ccncc2)C(=O)[C@H](Cc2ccccc2)NC(=O)NS(=O)(=O)c2ccccc2C)cc1` [Example ZY-4, (S)—N-(4-methoxyphenyl)-3-phenyl-N-(pyridin-4-ylmethyl)-2-(3-(o-tolylsulfonyl)ureido)propanamide] as the compound, how does the EC50 [1] read?
Answer: Its EC50 is 1000 to 10000 nM.

Question: Which EC50 [1] does the source give for `COc1ccc(N(CCc2ccccc2)C(=O)[C@H](Cc2ccccc2)NC(=O)NS(=O)(=O)c2ccccc2C)cc1` [Example ZY-5, (S)—N-(4-methoxyphenyl)-N-phenethyl-3-phenyl-2-(3-(o-tolylsulfonyl)ureido)propanamide] here?
Answer: Its EC50 is 10000 to 100000 nM.

Question: What about the EC50 [2] of the same compound?
Answer: The EC50 was 11400 nM.

Question: Which EC50 [1] does the source give for `COc1ccc(N(CC(C)C)C(=O)[C@H](Cc2ccccc2)NC(=O)NS(=O)(=O)c2ccccc2C)cc1` [Example ZY-6, (S)—N-isobutyl-N-(4-methoxyphenyl)-3-phenyl-2-(3-(o-tolylsulfonyl)ureido)propanamide] here?
Answer: Its EC50 is 1000 to 10000 nM.

Question: With `Cc1ccccc1S(=O)(=O)NC(=O)N[C@@H](Cc1cc(F)cc(F)c1)C(=O)N(C)c1ccc2scnc2c1` [Example ZY-7, (S)—N-(benzo[d]thiazol-5-yl)-3-(3,5-difluorophenyl)-N-methyl-2-(3-(o-tolylsulfonyl)ureido)propanamide] as the compound, how does the EC50 [1] read?
Answer: Its EC50 is under 100 nM.

Question: `CN(C(=O)[C@H](Cc1cc(F)cc(F)c1)NC(=O)NS(=O)(=O)c1ccccc1Cl)c1ccc2scnc2c1` [Example ZY-13, (S)—N-(benzo[d]thiazol-5-yl)-2-(3-((2-chlorophenyl)sulfonyl)ureido)-3-(3,5-difluorophenyl)-N-methylpropanamide] was tested. Which EC50 [1] did it give?
Answer: Its EC50 is under 100 nM.

Question: What about the EC50 [2] of the same compound?
Answer: The EC50 was 30 nM.

Question: How did the EC50 [1] turn out when `CN(C(=O)[C@H](Cc1cc(F)cc(F)c1)NC(=O)NS(=O)(=O)c1cc(F)ccc1F)c1ccc2scnc2c1` [Example ZY-14, (S)—N-(benzo[d]thiazol-5-yl)-3-(3,5-difluorophenyl)-2-(3-((2,5-difluorophenyl)sulfonyl)ureido)-N-methylpropanamide] was run?
Answer: Its EC50 is 100 to 1000 nM.

Question: `CN(C(=O)[C@H](Cc1cc(F)cc(F)c1)NC(=O)NS(=O)(=O)c1ccccc1F)c1ccc2scnc2c1` [Example ZY-16, (S)—N-(benzo[d]thiazol-5-yl)-3-(3,5-difluorophenyl)-2-(3-((2-fluorophenyl)sulfonyl)ureido)-N-methylpropanamide] was tested. Which EC50 [1] did it give?
Answer: Its EC50 is under 100 nM.

Question: `CN(C(=O)[C@H](Cc1cc(F)cc(F)c1)NC(=O)NS(=O)(=O)c1ccc(F)cc1F)c1ccc2scnc2c1` [Example ZY-17, (S)—N-(benzo[d]thiazol-5-yl)-3-(3,5-difluorophenyl)-2-(3-((2,4-difluorophenyl)sulfonyl)ureido)-N-methylpropanamide] was tested. Which EC50 [1] did it give?
Answer: Its EC50 is 100 to 1000 nM.

Question: For “(S)-2-(3-([1,1′-biphenyl]-2-ylsulfonyl)ureido)-N-(benzo[d][1,3]dioxol-5-yl)-N-methyl-3-phenylpropanamide [Example 48]”, which EC50 (antiviral activity class, recombinant NL4-3 Renilla luciferase virus in MT-2 cells, read-out: Activity) is on record?
Answer: Its EC50 is 1000 to 10000 nM.

Question: Which EC50 [3] does the source give for “(S)—N-((1-(3,3-dimethylazetidin-1-yl)-1-oxo-3-phenylpropan-2-yl)carbamoyl)-2-methylbenzenesulfonamide [Example 191]” here?
Answer: The EC50 was over 100000 nM.

Question: For “(S)—N-((1-(3-methoxyazetidin-1-yl)-1-oxo-3-phenylpropan-2-yl)carbamoyl)-2-methylbenzenesulfonamide [Example 190]”, which EC50 [3] is on record?
Answer: Its EC50 is over 100000 nM.
